Test system: hypertriglyceridemic patients with cardiovascular disease or at high risk for cardiovascular disease
Experiment: REDUCE-IT: clinical laboratory evaluation (hematology, liver function tests, clinical chemistry, drug-induced liver injury)
Format: in vivo, human
Method: Clinical Laboratory Procedures and Evaluations: All clinical laboratory determinations for screening and safety were performed by a certified clinical laboratory under the supervision of the Sponsor or its designee. Whenever possible and appropriate, samples for the clinical laboratory procedures were collected after fasting for at least 10 hours. For the purposes of this study, fasting was defined as nothing by mouth except water (and any essential medications). The investigator reviewed and signed all laboratory test reports. At screening, patients who had laboratory values that are outside the exclusionary limits specified in the exclusion criteria were not enrolled in the study (patients would have been considered for the study if values were classified as not clinically significant by the investigator). After randomization, the investigator was notified if laboratory values were outside of their normal range. In this case, the investigator was required to conduct clinically appropriate follow-up procedures.
Safety Laboratory Tests: The safety parameters were analyzed by a certified clinical laboratory at screening (Visit 1 or Visit 1.1), Randomization visit (Visit 2; Day 0), Visit 3 (Day 120; −4 Months) and all other follow-up visits including the Last Visit. The safety laboratory tests included: • Hematology with complete blood count (CBC), including RBC, hemoglobin (Hgb), hematocrit (Hct), white cell blood count (WBC), white cell differential, and platelet count; and • Biochemistry panel including total protein, albumin, alkaline phosphatase, alanine am inotransferase (ALT/SGPT), aspartate am inotransferase (AST/SGOT), total bilirubin, glucose, calcium, electrolytes (sodium, potassium, chloride), blood urea nitrogen (BUN), serum creatinine, uric acid, creatine kinase, and HbA1c.
Each laboratory result was classified as low (L), normal (N), and high (H) at each visit according to the laboratory-supplied normal range. The shift from baseline was presented for each post-baseline visit and overall post-baseline visits. If multiple measurements for a test parameter were available for a post-baseline patient-visit, the most extreme value was included in the shift table. For shift from baseline to overall post-baseline visits, values from all visits (including unscheduled measurements) were included. The chemistry shift table included fasting lipid parameters. The continuous lipid values were presented as part of the efficacy analysis.
A treatment-emergent PCS high value at any time was defined as a change from a value less than or equal to the upper reference limit at baseline to a PCS high value at any post-baseline measurement. A treatment-emergent PCS low value at any time was defined as a change from a value greater than or equal to the lower reference limit at baseline to a PCS low value at any post-baseline measurement. Number (%) of patients with any post-baseline PCS laboratory values was summarized by treatment group. A listing of patients with PCS laboratory values at any time, i.e., baseline or at any post-baseline visit, were included.
DILI cases were investigated through the following analyses: • A graph of distribution of peak values of alanine aminotransferase (ALT) versus peak values of total bilirubin (TBL) during the treatment period was prepared, using a logarithmic scale. In the graph, for each patient, the peak TBL times the Upper Limit of Normal (ULN) were plotted against the peak ALT times the ULN, where the peak TBL and peak ALT may or may not have happened on the same day of liver testing. The graph was divided into 4 quadrants with a vertical line corresponding to 3×ULN for ALT and a horizontal line corresponding to 2×ULN for TBL. […]

[1] = Baseline (Visit 2), Safety population
[2] = Visit 9 (n = 8), Safety population
[3] = Visit 9 (only 8 patients had data)
[4] = any post-baseline visit, 3975 patients with data
[5] = any post-baseline visit, 3977 patients with data

SMILES: CC/C=C\C/C=C\C/C=C\C/C=C\C/C=C\CCCC(=O)OCC [AMR101, eicosapentaenoic acid ethyl ester]
- ALT, mean baseline value [1]: 27.72 U/L
- AST, mean baseline value [1]: 24.47 U/L
- Hemoglobin, mean baseline value [1]: 141.16 g/L
- Platelet Count, mean baseline value [1]: 2.4301e+11 L⁻¹
- ALT, mean change from baseline (Last Visit, Safety population): −2.33 U/L
- AST, mean change from baseline (Last Visit, Safety population): −1.25 U/L
- Hemoglobin, mean change from baseline (Last Visit, Safety population): -1.12 g/L
- Platelet Count, mean change from baseline (Last Visit, Safety population): -5.52e+09 L⁻¹
- Increase of 3×ULN in ALT or AST and increase of 2×ULN in total bilirubin, patients (Safety population): one patient
- Increase of 3×ULN in ALT or AST, increase of 2×ULN in total bilirubin, and alkaline phosphatase ≤2×ULN, patients (Safety population): one patient
- Individual study drug-related hematology and clinical chemistry TEAEs, incidence (Safety population): < 0.2%
- Patients with basophils PCS high >1% (Safety population): 47.0%
- Patients with treatment-emergent total bilirubin >ULN (Safety population): 7.5%
- TEAE blood glucose increased, patients (Safety population): 2.6%
- TEAE hyperglycemia, patients (Safety population): 1.7%
- TEAE hypoglycemia, patients (Safety population): 1.5%
- ALT, mean change from baseline (Visit 3, Safety population): 0.39 U/L
- AST, mean change from baseline (Visit 3, Safety population): 0.24 U/L
- Hemoglobin, mean change from baseline (Visit 3, Safety population): 0.17 g/L
- Platelet Count, mean change from baseline (Visit 3, Safety population): -2.36e+09 L⁻¹
- ALT, mean change from baseline (Visit 4, Safety population): −0.28 U/L
- AST, mean change from baseline (Visit 4, Safety population): 0.03 U/L
- Hemoglobin, mean change from baseline (Visit 4, Safety population): 0.85 g/L
- Platelet Count, mean change from baseline (Visit 4, Safety population): -4.85e+09 L⁻¹
- ALT, mean change from baseline (Visit 5, Safety population): −1.27 U/L
- AST, mean change from baseline (Visit 5, Safety population): −0.83 U/L
- Hemoglobin, mean change from baseline (Visit 5, Safety population): 1.39 g/L
- Platelet Count, mean change from baseline (Visit 5, Safety population): -1.05e+10 L⁻¹
- ALT, mean change from baseline (Visit 6, Safety population): −1.66 U/L
- AST, mean change from baseline (Visit 6, Safety population): −1.10 U/L
- Hemoglobin, mean change from baseline (Visit 6, Safety population): 0.92 g/L
- Platelet Count, mean change from baseline (Visit 6, Safety population): -1.368e+10 L⁻¹
- ALT, mean change from baseline (Visit 7, Safety population): −2.80 U/L
- AST, mean change from baseline (Visit 7, Safety population): −1.56 U/L
- Hemoglobin, mean change from baseline (Visit 7, Safety population): 0.64 g/L
- Platelet Count, mean change from baseline (Visit 7, Safety population): -1.73e+10 L⁻¹
- Platelet count, greatest mean decrease from baseline excluding Visit 9 (Visit 8): 1.85e+10 L⁻¹
- ALT, mean change from baseline (Visit 8, Safety population): −3.42 U/L
- AST, mean change from baseline (Visit 8, Safety population): −1.66 U/L
- Hemoglobin, mean change from baseline (Visit 8, Safety population): -0.33 g/L
- Platelet Count, mean change from baseline (Visit 8, Safety population): -1.854e+10 L⁻¹
- ALT, mean change from baseline [2]: −1.25 U/L
- AST, mean change from baseline [2]: 0.25 U/L
- Hemoglobin, mean change from baseline [2]: -4.13 g/L
- Platelet Count, mean change from baseline [2]: -3.288e+10 L⁻¹
- Hemoglobin, greatest mean change from baseline [3]: -4.1 g/L
- Platelet count, greatest mean decrease from baseline [3]: 3.29e+10 L⁻¹
- ALT or AST >3 × ULN and Total Bilirubin >2 × ULN, % patients [4]: (0.0) %
- ALT or AST >3 × ULN and Total Bilirubin >2 × ULN, n patients [4]: 1
- ALT or AST >3 × ULN, % patients [4]: (1.5) %
- ALT or AST >3 × ULN, Total Bilirubin >2 × ULN, and ALP ≤2 × ULN, % patients [4]: (0.0) %
- ALT or AST >3 × ULN, Total Bilirubin >2 × ULN, and ALP ≤2 × ULN, n patients [4]: 1
- ALT or AST >3 × ULN, n patients [4]: 61
- PCS High >3 × ULN (AST) and >2 × ULN (Total Bilirubin), % patients [4]: (0.0) %
- PCS High >3 × ULN (AST) and >2 × ULN (Total Bilirubin), n patients [4]: 1
- Treatment-emergent AST >3 × ULN, % patients [4]: (0.9) %
- Treatment-emergent AST >3 × ULN, n patients [4]: 36
- Treatment-emergent AST >ULN, % patients [4]: (23.4) %
- Treatment-emergent AST >ULN, n patients [4]: 932
- PCS High >3 × ULN (ALT) and >2 × ULN (Total Bilirubin), % patients [5]: (0.0) %
- PCS High >3 × ULN (ALT) and >2 × ULN (Total Bilirubin), n patients [5]: 1
- Treatment-emergent ALP >2 × ULN, % patients [5]: (0.5) %
- Treatment-emergent ALP >2 × ULN, n patients [5]: 18
- Treatment-emergent ALP >ULN, % patients [5]: (7.7) %
- Treatment-emergent ALP >ULN, n patients [5]: 308
- Treatment-emergent ALT >3 × ULN, % patients [5]: (1.1) %
- Treatment-emergent ALT >3 × ULN, n patients [5]: 44
- Treatment-emergent ALT >ULN, % patients [5]: (32.9) %
- Treatment-emergent ALT >ULN, n patients [5]: 1308
- Treatment-emergent Total Bilirubin >2 × ULN, % patients [5]: (0.5) %
- Treatment-emergent Total Bilirubin >2 × ULN, n patients [5]: 21
- Treatment-emergent Total Bilirubin >ULN, % patients [5]: (7.5) %
- Treatment-emergent Total Bilirubin >ULN, n patients [5]: 297
- Hemoglobin, greatest mean change from baseline excluding Visit 9 (final visit): -1.1 g/L

Reference: patent publication US12427134B2, “Methods of reducing the risk of cardiovascular events in a subject with atrial fibrillation and/or atrial flutter” (priority 2019, dated 2025)
